From ChEMBL document CHEMBL4177607, “Antibacterial constituents of the plant family Amaryllidaceae” (2017) come the findings set out here.

What all share (format): functional
Assay [1] concerns Flavobacterium columnare. As to the kind of experiment: Antibacterial activity against Flavobacterium columnare BioMed after 24 hrs.
Assay [2] relates to Flavobacterium columnare. Put plainly: Antibacterial activity against Flavobacterium columnare ALM-00-173 after 24 hrs. The settings on record: ALM-00-173, 24 h.
For assay [3], the system named is Shigella flexneri. As to the kind of experiment: Antibacterial activity against Shigella flexneri after 24 hrs by broth microdilution method.
The subject of assay [4] is Pseudomonas aeruginosa. As to the kind of experiment: Antibacterial activity against Pseudomonas aeruginosa after 24 hrs by broth microdilution method. Background: In broth dilution the organism is exposed to a series of concentrations in liquid medium.
The subject of assay [5] is Escherichia coli. Put plainly: Antibacterial activity against Escherichia coli after 24 hrs by broth microdilution method.

In brackets after ≈: the same amount, converted by molar mass. Bounds are passed on as bounds.

As a reminder, the MIC is the lowest concentration found to suppress growth. Read a low MIC as greater potency. Regarding `CC(=O)O[C@H]1[C@H]2c3cc4c(cc3CN3CCC(=C[C@@H]1OC(C)=O)[C@H]23)OCO4.Cl`, the MIC in assay [1] and in assay [2] was 40.7 µg/mL each time.
Turning to `C[N+]12CCC3=C[C@H](OC(=O)c4ccccc4Cl)[C@@H](OC(=O)c4ccccc4Cl)[C@@H](c4cc5c(cc4C1)OCO5)[C@@H]32.[I-]` (some centres not stated), the MIC in assay [1] and in assay [2] was above 70 µg/mL each time.
Take `Cc1ccccc1C(=O)O[C@H]1[C@H]2c3cc4c(cc3CN3CCC(=C[C@@H]1OC(=O)c1ccccc1C)[C@H]23)OCO4`: the minimum inhibitory concentration (MIC) in assay [1] and in assay [2] was 4.1 µg/mL throughout.
On to `Cc1ccccc1C(=O)O[C@H]1C=C2CCN3Cc4cc5c(cc4[C@H]([C@@H]1O)[C@@H]23)OCO5`, for which the minimal inhibitory concentration (MIC) in assay [1] came to 22.9 µg/mL; in assay [2] it was 46.4 µg/mL.
For `[O-]c1ccc2c3c1c1cc4c(cc1c[n+]3CC2)OCO4`, in that order: 100 µM and 10 µM.
With `COc1cc2c(c(O)c1C)C(=O)C(O)C(c1ccc(O)cc1)O2` (configuration not stated), the MIC was 4 µg/mL (≈ 12.6 µM) in assay [3], 32 µg/mL (≈ 101 µM) in assay [4] and 16 µg/mL (≈ 50.6 µM) in assay [5].
Regarding `O=C(O[C@H]1C=C2CCN3Cc4cc5c(cc4[C@H]([C@@H]1OC(=O)c1ccccc1Cl)[C@@H]23)OCO5)c1cccc(Cl)c1`, the MIC was found to be 5.6 µg/mL in assay [1] and 31 µg/mL in assay [2].
As for `Cc1ccc(C(=O)O[C@H]2[C@H]3c4cc5c(cc4CN4CCC(=C[C@@H]2OC(=O)c2ccc(C)cc2)[C@H]34)OCO5)cc1`, the MIC worked out at 22.9 µg/mL in assay [1] and 46.4 µg/mL in assay [2].
For `O=C(O[C@H]1C=C2CCN3Cc4cc5c(cc4[C@H]([C@@H]1O)[C@@H]23)OCO5)c1ccc(Cl)cc1`, in that order: 42.6 µg/mL and 42.6 µg/mL.
With `Cc1ccccc1NC(=O)O[C@H]1C=C2CCN3Cc4cc5c(cc4[C@H]([C@@H]1O)[C@@H]23)OCO5`, the MIC in assay [1] worked out at 42.1 µg/mL; in assay [2], 23.2 µg/mL.
`O=C(O[C@H]1[C@H]2c3cc4c(cc3CN3CCC(=C[C@@H]1OC(=O)c1cccc(Cl)c1)[C@H]23)OCO4)c1cccc(Cl)c1`: the MIC in assay [1] and in assay [2] was 5.6 µg/mL throughout.
Consider `Cc1ccc(C(=O)O[C@H]2[C@H]3c4cc5c(cc4CN4CCC(=C[C@@H]2OC(=O)c2ccc(C)cc2C)[C@H]34)OCO5)c(C)c1`, for which the minimal inhibitory concentration (MIC) in assay [1] was 30.4 µg/mL; in assay [2], 5.5 µg/mL.
As to `Cc1cccc(C(=O)O[C@H]2[C@H]3c4cc5c(cc4CN4CCC(=C[C@@H]2OC(=O)c2cccc(C)c2)[C@H]34)OCO5)c1`, the results for the MIC in assay [1] and in assay [2] were 28.8 µg/mL and 5.2 µg/mL, respectively.
For `O=C(O[C@H]1[C@H]2c3cc4c(cc3CN3CCC(=C[C@@H]1OC(=O)c1ccc(Cl)cc1)[C@H]23)OCO4)c1ccc(Cl)cc1`, in that order: 5.6 µg/mL and 31 µg/mL.
For the molecule `Cc1ccccc1NC(=O)O[C@H]1[C@H]2c3cc4c(cc3CN3CCC(=C[C@@H]1OC(=O)Nc1ccccc1C)[C@H]23)OCO4`, the MIC in assay [1] and in assay [2] was 5.5 µg/mL in each case.
As to `COc1cc2c[n+]3c4c(cc([O-])cc4c2cc1O)CC3`, the results for the MIC in assay [1] and in assay [2] were 10 µM and 100 µM, respectively.
For the molecule `Cc1ccc(C(=O)O[C@H]2C=C3CCN4Cc5cc6c(cc5[C@H]([C@@H]2O)[C@@H]34)OCO6)cc1`, the MIC is 22.9 µg/mL in assay [1] and 4.7 µg/mL in assay [2].
For `Cc1cccc(C(=O)O[C@H]2[C@H]3c4cc5c(cc4CN4CCC(=C[C@@H]2OC(=O)c2cccc(C)c2C)[C@H]34)OCO5)c1C`, the MIC in assay [1] amounted to 55.2 µg/mL; in assay [2] it was 30.4 µg/mL.
For `O=C1N[C@H]2[C@H](O)[C@H](O)[C@@H](O)C[C@@H]2c2cc3c(c(O)c21)OCO3`, the MIC is 4 µg/mL (≈ 12.9 µM) in assay [3], 16 µg/mL (≈ 51.7 µM) in assay [4] and 4 µg/mL (≈ 12.9 µM) in assay [5].
`CC(=O)O[C@H]1C=C2CCN3Cc4cc5c(cc4[C@H]([C@@H]1O)[C@@H]23)OCO5`: the MIC in assay [1] stood at 3.3 µg/mL; in assay [2], 16.6 µg/mL.
